# Test results: EP3095872A1, “A METHOD OF PRODUCING ALPHA AMINO ACIDS” (Evonik Degussa GmbH, priority 2015, dated 2016)
# Where two headings read alike, the source gives them in different places. Marks after values point to notes of the source that are not given here.
# How the values were obtained:
# Type in all cases: biochemical
# P450Cla+CamAB = assay: conversion of fatty acid substrate with P450Cla+CamAB, oxidant O2 + NADPH; details: 10 mM substrate, % of the product area of the reaction with H2O2 and 10 mM 1d
# Description: (§1) P450BSß was expressed and purified as described in Matsunaga et al. 2001. P450Cla was ordered as synthetic gene and cloned into the pET28a expression vector. Efficient expression of P450Cla was obtained by applying the expression protocol (TBmedia, 20 h, 30 °C) as described in Nazor et al. (2008) under heading 'shake flask expression of P450 BM3'. Purification was performed according to the published protocol (Girhard M., et al, 2007) with minor alterations as (unreported) precipitation of P450Cla during dialysis occured. The dialysis buffer was supplemented with 300 mM NaCl to prevent precipitation of P450Cla. Next, hydroxylation of fatty acid substrates 1a-d (scheme 2) was performed employing purified P450Cla and P450BSß. The oxidant source was varied in case of P450Cla while only H2O2 was used with P450BSß. Table 2: Conversion of fatty acid substrates 1a-d with P450Cla and CYPBSß
# (§2) All reactions were performed in closed glass vials for 24 h reaction time at RT with 170 rpm shaking. The reactions were quenched by addition of 100 µl 5 N HCl. Extractions were performed with 500 µl EtOAc containing 0.1 % 1-decanol as internal standard. After drying over Na2SO4, derivatization of acids to corresponding methyl esters was realized by mixing 150 µl of organic phase with 90µl of MeOH prior to supplementation of 20 µl of TMSCHN2 for esterification. Samples were analyzed by GC-FID and GC-MS. […]
# P450Cla [1] = assay: conversion of fatty acid substrate with P450Cla, oxidant O2 + NADPH; details: 10 mM substrate, without CamAB
# Description: as §1, §2
# P450Cla [2] = assay: conversion of fatty acid substrates 1a-d with P450Cla, oxidant H2O2; details: 3 µM P450Cla, 24 h, RT, values marked a based on substrate depletion
# Description: P450Cla was ordered as synthetic gene and cloned into the pET28a expression vector. […] The dialysis buffer was supplemented with 300 mM NaCl to prevent precipitation of P450Cla. Next, hydroxylation of fatty acid substrates 1a-d (scheme 2) was performed employing purified P450Cla and P450BSß. The oxidant source was varied in case of P450Cla while only H2O2 was used with P450BSß.
# Reaction conditions for P450Cla: 3µM P450Cla; Tris-HCl (pH 7.5; 0.1 M); 2.5 to 5 % EtOH (cosolvent for the substrate).
# All reactions were performed in closed glass vials for 24 h reaction time at RT with 170 rpm shaking. The reactions were quenched by addition of 100 µl 5 N HCl. Extractions were performed with 500 µl EtOAc containing 0.1 % 1-decanol as internal standard. After drying over Na2SO4, derivatization of acids to corresponding methyl esters was realized by mixing 150 µl of organic phase with 90µl of MeOH prior to supplementation of 20 µl of TMSCHN2 for esterification. Samples were analyzed by GC-FID and GC-MS. Commercial standards of 2-hydroxycaproic acid (2a), 2-hydroxyoctanoic acid (2b) and 2-oxooctanoic acid (4b) were used as references. Calibration curves were obtained from standards 1a-d and 2a-b prepared identically to the reaction mixtures (5 concentration points from 10 µM to 1 mM).
# HICDH-proteins = assay: spectrophotometric monitoring (340 nm) and GC-FID of HICDH oxidation and reduction
# P450Cla [3] = assay: preparative scale conversion of decanoic acid with P450Cla; details: 20 mM decanoic acid; 4 µM P450Cla; 32 mM H2O2 in total; 24 h
# Description: Synthesis of 2-hydroxydecanoic acid was done in 10 ml Tris-HCl (pH 7.5; 0.1 M) employing 4µM P450Cla, 20 mM decanoic acid (38.8 mg of the sodium salt) and 2.5 % EtOH (RT, 170 rpm shaking). Hydrogen peroxide (1.6 mM) was added every 30 min (20 times; in total 32 mM) to the reaction mixture. After 24 h reaction time, 1 ml 5 N HCl was added to stop the reaction. Product extraction was repeated five times using 5 ml EtOAc prior to purification by silica chromatography column using EtOAc/petroleum ether/acetic acid as mobile phase (80:20:1.2). Fractions containing the desired product were combined and concentrated by evaporation under reduced pressure. With the present set up, 16 mg of 2-hydroxydecanoic acid (46 % isolated yield, TTNP450 ∼ 3040) was isolated which was confirmed by GC-MS, 1 H- and 13C-NMR (Figure 1).
# P450Cla [4] = assay: alpha-hydroxylation of selected fatty acids, catalytic and kinetic characterization of P450Cla; details: for Product: 10 mM fatty acid, 0.5 µM P450Cla (C10), 1 µM (C8, C6), Tris-HCl pH 7.5, RT, triplicate; for specific activity U mg^-1: P450Cla 48 kDa, values only relevant at initial rate; for Coupling*: mol product per mol H2O2
# Description: Hydroxylation of selected fatty acids was carried out using a fresh preparation of purified P450Cla. P450Cla was characterised for key catalytic parameters specific activities were determined for three selected substrates as shown in Table 1. Table 1: Catalytic and kinetic characterization of P450Cla for conversion of 10 mM of selected fatty acids. All reactions were performed in triplicate.
# Conditions: 0.5 µM P450Cla used in reactions with C10; 1 µM P450Cla used in reactions with C8 and C6; All reactions were performed in Tris-HCl (pH 7.5, 0.1 M) at RT and 170 rpm shaking in closed glass vials; *molProduct^-1 molH2O2^-1; ^§molecular weight of P450Cla is 48 kDa, values only relevant at initial rate.
smiles,measurement,setting,value
"CCCCCCCCCCCC(=O)O [Substrate 1d, dodecanoic acid]",Conversion,P450Cla+CamAB,5^b %
same,Conversion,P450Cla [1],0%
same,Conversion,"P450Cla [2]; 5 mM substrate, H2O2 9.6 mM total",>99^a %
same,Conversion,"P450Cla [2]; 10 mM substrate, H2O2 19.2 mM total",>99^a %
"CCCCCCC(=O)C(=O)O [Substrate 4b, 2-oxooctanoic acid]",Reduction to 2-hydroxy octanoic acid 2b (GC-FID),HICDH-proteins,confirmed
"CCCCCCCCCC(=O)O [Substrate C10, decanoic acid]",TTNP450,P450Cla [3],~3040
same,Selectivity [% α-OH],P450Cla [4],> 90%
same,specific activity,P450Cla [4],≥ 1 U mg^-1
same,Product,"P450Cla [4]; 5 min, H2O2 0.8 mM",0.67 ± 0.04 mM
same,Product,"P450Cla [4]; 15 min, H2O2 0.8 mM",0.6 ± 0.02 mM
same,Product,"P450Cla [4]; 30 min, H2O2 1.6 mM",1.2 ± 0.06 mM
same,Selectivity [% α-OH],"P450Cla [4]; 5 min, H2O2 0.8 mM",>95%
same,TON,"P450Cla [4]; 5 min, H2O2 0.8 mM",266 min⁻¹
same,TTN,"P450Cla [4]; 5 min, H2O2 0.8 mM",1330
same,specific activity U mg^-1,"P450Cla [4]; 5 min, H2O2 0.8 mM",5.5 U mg^-1
same,Coupling*,"P450Cla [4]; 5 min, H2O2 0.8 mM",83%
same,Selectivity [% α-OH],"P450Cla [4]; 15 min, H2O2 0.8 mM",>95%
same,TON,"P450Cla [4]; 15 min, H2O2 0.8 mM",80 min⁻¹
same,TTN,"P450Cla [4]; 15 min, H2O2 0.8 mM",1207
same,specific activity U mg^-1,"P450Cla [4]; 15 min, H2O2 0.8 mM",1.7 U mg^-1
same,Coupling*,"P450Cla [4]; 15 min, H2O2 0.8 mM",75%
same,Selectivity [% α-OH],"P450Cla [4]; 30 min, H2O2 1.6 mM",>95%
same,TON,"P450Cla [4]; 30 min, H2O2 1.6 mM",80 min⁻¹
same,TTN,"P450Cla [4]; 30 min, H2O2 1.6 mM",2406
same,specific activity U mg^-1,"P450Cla [4]; 30 min, H2O2 1.6 mM",1.7 U mg^-1
same,Coupling*,"P450Cla [4]; 30 min, H2O2 1.6 mM",75%
